Legend:
[1] = molecular target: T1, human α1D adrenergic receptor (Homo sapiens, UniProt P25100); test: Binding at human α1D adrenergic receptor; settings: Table 8; read-out: hα1D Ki
T1 construct: host or cells: LM(tk-) cells, line L-α1A
T1 sequence (P25100 1-572): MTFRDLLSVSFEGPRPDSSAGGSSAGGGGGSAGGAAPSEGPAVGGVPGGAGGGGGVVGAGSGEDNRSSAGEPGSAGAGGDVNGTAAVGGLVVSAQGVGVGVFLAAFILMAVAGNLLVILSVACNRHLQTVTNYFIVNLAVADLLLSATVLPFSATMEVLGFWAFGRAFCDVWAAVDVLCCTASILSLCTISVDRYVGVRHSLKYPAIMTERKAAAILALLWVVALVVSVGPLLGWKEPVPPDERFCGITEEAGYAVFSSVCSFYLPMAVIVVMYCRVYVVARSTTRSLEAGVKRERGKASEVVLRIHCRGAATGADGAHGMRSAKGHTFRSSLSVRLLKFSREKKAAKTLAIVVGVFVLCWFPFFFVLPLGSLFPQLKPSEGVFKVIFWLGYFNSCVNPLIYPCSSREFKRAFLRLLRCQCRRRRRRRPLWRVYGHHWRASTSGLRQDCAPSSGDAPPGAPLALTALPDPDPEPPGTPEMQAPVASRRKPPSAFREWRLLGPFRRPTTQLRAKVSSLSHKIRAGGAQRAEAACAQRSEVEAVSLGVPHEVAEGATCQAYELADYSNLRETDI
Description: α1 Human Adrenergic Receptors: To determine the binding of compounds to human α1 receptors, LM(tk−) cell lines stably transfected with the genes encoding the α1a, α1b, and α1d receptors were used. The nomenclature describing the α1 receptors was changed recently, such that the receptor formerly designated α1a is now designated α1d, and the receptor formerly designated α1c is now designated α1a. The cell lines expressing these receptors were deposited with the ATCC before the nomenclature change and reflect the subtype designations formerly assigned to these receptors. Thus, the cell line expressing the receptor described herein as the α1a receptor was deposited with the ATCC on Sep. […] The cell line expressing receptor described herein as the α1d receptor was deposited with the ATCC on Sep. […] The cell line expressing the α1b receptor is designated L-α1B, and was deposited on Sep.
(§1) The binding affinity (Ki) of these compounds were tested according to the protocols described herein at the following receptors; human α1A, α1B, α1D, α2A, α2B, and α2C adrenergic receptors; human Y1, Y2, Y4, and Y5 receptors; and N-Methyl-D-aspartic acid (NMDA) receptor channels. The binding interactions of these compounds were additionally tested at the norepinephrine (NE) transporter (NE uptake) and serotonin (5-hydroxytryptamine (5HT)) transporter (5HT uptake) according to protocols described herein

[2] = molecular target: T2, human α2B adrenergic receptor (Homo sapiens, UniProt P18089); test: Binding at human α2B adrenergic receptor; settings: Table 8; read-out: hα2B Ki
T2 construct: host or cells: LM(tk-) cells, line L-NGC-α2B
T2 sequence (P18089 1-450): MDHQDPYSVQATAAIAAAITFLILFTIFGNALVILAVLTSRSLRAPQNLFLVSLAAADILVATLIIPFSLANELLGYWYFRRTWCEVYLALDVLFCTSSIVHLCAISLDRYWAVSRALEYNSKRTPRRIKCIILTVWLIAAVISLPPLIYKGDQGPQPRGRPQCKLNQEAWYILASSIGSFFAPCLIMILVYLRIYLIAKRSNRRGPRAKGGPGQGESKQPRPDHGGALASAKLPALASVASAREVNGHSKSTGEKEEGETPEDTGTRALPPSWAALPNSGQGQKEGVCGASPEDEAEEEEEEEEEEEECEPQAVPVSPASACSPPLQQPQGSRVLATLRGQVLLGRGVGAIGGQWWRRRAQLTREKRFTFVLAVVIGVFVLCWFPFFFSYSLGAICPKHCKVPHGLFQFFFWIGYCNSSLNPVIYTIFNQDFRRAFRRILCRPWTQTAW
Description: (§2) α2 Human Adrenergic Receptors: To determine the binding of compounds to human α2 receptors, LM(tk−) cell lines stably transfected with the genes encoding the α2A, α2B, and α2C receptors were used. The cell line expressing the α2A receptor is designated L-α2A, and was deposited on Nov. 6, 1992, under ATCC Accession No. CRL 11180. The cell line expressing the α2B receptor is designated L-NGC-α2B, and was deposited on Oct. 25, 1989, under ATCC Accession No. CRL 10275. The cell line expressing the α2C receptor is designated L-α2C, and was deposited on Nov. 6, 1992, under ATCC Accession No. CRL-11181. Cell lysates were prepared as described herin, and suspended in 25 mM glycyiglycine buffer (pH 7.6 at room temperature). Equilibrium competition binding assay were performed using […] (0.5 nM), and nonspecific binding was determined by incubation with 10 μM phentolamine. The bound radioligand was separated by filtration through GF/B filters using a cell harvester.
as §1

[3] = molecular target: T3, human α2C adrenergic receptor (Homo sapiens, UniProt P18825); test: Binding at human α2C adrenergic receptor; settings: Table 8; read-out: hα2C Ki
T3 construct: host or cells: LM(tk-) cells, line L-α2C
T3 sequence (P18825 1-462): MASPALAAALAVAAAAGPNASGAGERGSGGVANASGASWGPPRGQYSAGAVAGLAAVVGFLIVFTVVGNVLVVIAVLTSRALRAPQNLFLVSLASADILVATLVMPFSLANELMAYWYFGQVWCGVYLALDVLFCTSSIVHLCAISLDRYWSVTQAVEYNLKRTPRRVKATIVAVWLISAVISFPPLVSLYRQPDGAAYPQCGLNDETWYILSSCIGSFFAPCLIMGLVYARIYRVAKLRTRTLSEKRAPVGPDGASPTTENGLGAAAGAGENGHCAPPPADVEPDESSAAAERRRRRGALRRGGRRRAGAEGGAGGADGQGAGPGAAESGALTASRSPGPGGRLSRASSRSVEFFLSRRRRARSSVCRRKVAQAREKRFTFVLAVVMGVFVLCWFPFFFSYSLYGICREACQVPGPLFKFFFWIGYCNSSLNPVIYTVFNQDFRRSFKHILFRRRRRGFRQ
Description: as §2, §1

Cc1nc(NC(=N)N)nc2ccc3ccccc3c12 [Compound 1007A] gave a Ki [1] of 8.58 µM.
Compound Cc1cc(NC(=N)N)nc2ccc(Cl)cc12 [Compound 4005A, N-(6-chloro-4-methyl-2-quinolinyl)guanidine] has a Ki [2] of 3.75 µM and a Ki [3] of 0.765 µM.

Reference: patent US20030176314A1, “Compounds for the treatment of pain” (priority 2001, published 2003)
